For one experiment, the target named is T1, hSTING (H232) (Homo sapiens, UniProt Q86WV6).
T1 construct: host or cells: HEK293T
In words: Luciferase reporter assay in HEK293T-hSTING-Luciferase cells (H232/REF polymorph). Type of experiment: cell-based. Conditions: EC50 range. The gist of the method: (§1)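 Clonal HEK293T lines stably expressing the hSTING variant (H232 or HAQ) plus an ISRE/ISG54-driven secreted luciferase reporter were stimulated with compounds for 20 hr. Supernatant luciferase measured by luminescence (Quanti-Luc).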
For orientation: In a reporter assay the amount or activity of a reporter protein is the signal.

The subject of the next experiment is IRF pathway. In words: Reporter gene expression assay for IRF axis in THP1-Dual cells (secreted Lucia luciferase). Conditions: Homo sapiens, THP1-Dual, 20 h, 20 hr stimulation, QUANTI-Luc, EC50 range, read-out: THP-IRF activity. Type of experiment: cell-based, human. The gist of the method:
(§2)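 THP1-Dual cells (THP-1 monocytes with inducible NF-κB-SEAP and IRF-Lucia reporters; 5×10^5 cells) were stimulated with compounds for 20 hr. Secreted SEAP (QUANTI-Blue) and Lucia luciferase (QUANTI-Luc) were then measured in the supernatant. EC50 values are reported as ranges.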

For another experiment, the system named is NF-κB pathway. In words: Reporter gene expression assay for NFκB axis in THP1-Dual cells (secreted SEAP). Type of experiment: cell-based, human. Conditions: Homo sapiens, THP1-Dual, 20 h, 20 hr stimulation, QUANTI-Blue SEAP, EC50 range, read-out: THP-NFKB activity. The gist of the method:
as §2

The target in another experiment is T2, hSTING (HAQ) (Homo sapiens, UniProt Q86WV6, G230A/H232R/R293Q/R71H).
T2 construct: host or cells: HEK293T
In words: Luciferase reporter assay in HEK293T-hSTING-Luciferase cells (HAQ polymorph). Conditions: EC50 range. Type of experiment: cell-based. The gist of the method:
as §1

For another experiment, the target named is T3, WT/R232 STING protein (Homo sapiens, UniProt Q86WV6, H232R).
T3 construct: host or cells: HEK293T
In words: Luciferase reporter assay in HEK293T-hSTING-Luciferase cells (R232). Type of experiment: cell-based. Conditions: 20 hr stimulation, EC50 range. The method in brief: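 Readout is fold-induction over baseline of secreted luciferase, measured by luminescence after 20 hr compound stimulation. Cells: clonally selected HEK293T stably carrying hSTING (R232) and a luciferase reporter under five tandem ISREs fused to an ISG54 minimal promoter.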

T1 sequence (Q86WV6 whole entry): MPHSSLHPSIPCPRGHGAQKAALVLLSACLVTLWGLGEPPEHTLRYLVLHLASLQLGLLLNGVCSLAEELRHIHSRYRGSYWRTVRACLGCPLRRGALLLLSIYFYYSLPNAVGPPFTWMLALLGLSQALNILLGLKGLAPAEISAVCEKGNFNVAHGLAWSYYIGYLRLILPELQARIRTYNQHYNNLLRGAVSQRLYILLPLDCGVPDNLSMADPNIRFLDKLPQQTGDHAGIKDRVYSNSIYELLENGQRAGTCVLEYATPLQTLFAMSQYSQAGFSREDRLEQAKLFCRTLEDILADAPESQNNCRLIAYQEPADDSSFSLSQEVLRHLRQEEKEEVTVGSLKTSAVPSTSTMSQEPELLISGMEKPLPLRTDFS
T3 sequence (Q86WV6 whole entry H232R): as the sequence (Q86WV6 whole entry) above, with H232R counted along it
T2 sequence (Q86WV6 whole entry R71H/G230A/H232R/R293Q): as the sequence (Q86WV6 whole entry) above, with R71H, G230A, H232R, R293Q counted along it

With `Cc1cc(CN2C(=O)C(C)(C)c3ccc(C(=O)NCc4c(F)cc(F)cc4F)cc32)nn1C` [Example 81, 1-((1,5-dimethyl-1H-pyrazol-3-yl)methyl)-3,3-dimethyl-2-oxo-N-(2,4,6-trifluorobenzyl)indoline-6-carboxamide], the EC50 at hSTING (H232), in the experiment on IRF pathway, in the experiment with NF-κB pathway, at hSTING (HAQ) and on WT/R232 STING protein was 1000 to 10000 nM throughout.
In the case of `Cc1cc(CN2C(=O)C(C)(C)c3ccc(C(=O)NCc4c(F)cc(F)cc4F)cc32)n(C)n1` [Example 82, 1-((1,3-dimethyl-1H-pyrazol-5-yl)methyl)-3,3-dimethyl-2-oxo-N-(2,4,6-trifluorobenzyl)indoline-6-carboxamide], the EC50 at hSTING (H232) was 1000 to 10000 nM; in the experiment on IRF pathway, 1000 to 10000 nM; with NF-κB pathway, 1000 to 10000 nM; on hSTING (HAQ) it was 1000 to 10000 nM; on WT/R232 STING protein, at most 1000 nM.
Turning to `COc1cc(F)cc(CN2C(=O)C(C)(C)c3ccc(C(=O)NCc4c(F)cc(F)cc4F)cc32)c1` [Example 89, 1-(3-fluoro-5-methoxybenzyl)-3,3-dimethyl-2-oxo-N-(2,4,6-trifluorobenzyl)indoline-6-carboxamide], the EC50 at hSTING (H232) was at most 1000 nM; in the experiment on IRF pathway, 1000 to 10000 nM; in the experiment with NF-κB pathway it was 1000 to 10000 nM; at hSTING (HAQ), at most 1000 nM; at WT/R232 STING protein, at most 1000 nM.
For `CC1(C)C(=O)N(Cc2c(F)cccc2Cl)c2cc(C(=O)NCc3ccc4ccoc4c3)ccc21` [Example 90, N-(benzofuran-6-ylmethyl)-1-(2-chloro-6-fluorobenzyl)-3,3-dimethyl-2-oxoindoline-6-carboxamide], the EC50 is 1000 to 10000 nM at hSTING (H232); 1000 to 10000 nM in the experiment on IRF pathway; 1000 to 10000 nM with NF-κB pathway; 1000 to 10000 nM at hSTING (HAQ); at most 1000 nM on WT/R232 STING protein.
Regarding `CC1(C#N)C(=O)N(Cc2cc(F)cc(F)c2)c2cc(C(=O)NCc3cc4ccccc4o3)ccc21` (centres unmarked) [Example 92, N-(benzofuran-2-ylmethyl)-3-cyano-1-(3,5-difluorobenzyl)-3-methyl-2-oxoindoline-6-carboxamide], the EC50 was 1000 to 10000 nM on hSTING (H232); above 10000 nM with IRF pathway; above 10000 nM with NF-κB pathway; 1000 to 10000 nM on hSTING (HAQ); 1000 to 10000 nM on WT/R232 STING protein.
Regarding `CC1(C)C(=O)N(Cc2noc3ncccc23)c2cc(C(=O)NCc3c(F)cc(F)cc3F)ccc21` [Example 97, 1-(isoxazolo[5,4-b]pyridin-3-ylmethyl)-3,3-dimethyl-2-oxo-N-(2,4,6-trifluorobenzyl)indoline-6-carboxamide], the EC50 on hSTING (H232) is 1000 to 10000 nM; in the experiment with IRF pathway, above 10000 nM; in the experiment with NF-κB pathway, above 10000 nM; at hSTING (HAQ) it was 1000 to 10000 nM; on WT/R232 STING protein, at most 1000 nM.
Consider `CC1(C)C(=O)N(Cc2noc3ccccc23)c2cc(C(=O)NCc3c(F)cc(F)cc3F)ccc21` [Example 98, 1-(benzo[d]isoxazol-3-ylmethyl)-3,3-dimethyl-2-oxo-N-(2,4,6-trifluorobenzyl)indoline-6-carboxamide], for which the EC50 was at most 1000 nM at hSTING (H232); above 10000 nM with IRF pathway; above 10000 nM in the experiment on NF-κB pathway; 1000 to 10000 nM at hSTING (HAQ); at most 1000 nM at WT/R232 STING protein.
In the case of `CC1(C)C(=O)N(Cc2coc3ccccc23)c2cc(C(=O)NCc3c(F)cc(F)cc3F)ccc21` [Example 100, 1-(benzofuran-3-ylmethyl)-3,3-dimethyl-2-oxo-N-(2,4,6-trifluorobenzyl)indoline-6-carboxamide], the EC50 was 1000 to 10000 nM at hSTING (H232); above 10000 nM with IRF pathway; above 10000 nM in the experiment with NF-κB pathway; 1000 to 10000 nM on hSTING (HAQ); 1000 to 10000 nM at WT/R232 STING protein.
Consider `COc1cccc(F)c1CN1C(=O)C(C)(C)c2ccc(C(=O)NCc3c(F)cc(F)cc3F)cc21` [Example 102, 1-(2-fluoro-6-methoxybenzyl)-3,3-dimethyl-2-oxo-N-(2,4,6-trifluorobenzyl)indoline-6-carboxamide], for which the EC50 at hSTING (H232), with IRF pathway, in the experiment on NF-κB pathway, on hSTING (HAQ) and on WT/R232 STING protein was at most 1000 nM throughout.
With `Cc1cccc(F)c1CN1C(=O)C(C)(C)c2ccc(C(=O)NCc3c(F)cc(F)cc3F)cc21` [Example 103, 1-(2-fluoro-6-methylbenzyl)-3,3-dimethyl-2-oxo-N-(2,4,6-trifluorobenzyl)indoline-6-carboxamide], the EC50 is at most 1000 nM on hSTING (H232); 1000 to 10000 nM with IRF pathway; 1000 to 10000 nM in the experiment with NF-κB pathway; at most 1000 nM at hSTING (HAQ); at most 1000 nM at WT/R232 STING protein.
Take `COc1cccc(CN2C(=O)C(C)(C)c3ccc(C(=O)NCc4c(F)cc(F)cc4F)cc32)c1F` [Example 104, 1-(2-fluoro-3-methoxybenzyl)-3,3-dimethyl-2-oxo-N-(2,4,6-trifluorobenzyl)indoline-6-carboxamide]: the EC50 at hSTING (H232) was 1000 to 10000 nM; in the experiment on IRF pathway it was above 10000 nM; in the experiment on NF-κB pathway it was above 10000 nM; on hSTING (HAQ), 1000 to 10000 nM; on WT/R232 STING protein, 1000 to 10000 nM.
On to `Cc1nn(C)c(CN2C(=O)C(C)(C)c3ccc(C(=O)NCc4c(F)cc(F)cc4F)cc32)c1Br` [Example 106, 1-((4-bromo-1,3-dimethyl-1H-pyrazol-5-yl)methyl)-3,3-dimethyl-2-oxo-N-(2,4,6-trifluorobenzyl)indoline-6-carboxamide], for which the EC50 at hSTING (H232) is at most 1000 nM; with IRF pathway, 1000 to 10000 nM; in the experiment on NF-κB pathway, 1000 to 10000 nM; on hSTING (HAQ), at most 1000 nM; on WT/R232 STING protein, at most 1000 nM.
Regarding `Cc1cc(CN2C(=O)C(C)(C)c3ccc(C(=O)NCc4cc5ccccc5o4)cc32)n(C)n1` [Example 107, N-(benzofuran-2-ylmethyl)-1-((1,3-dimethyl-1H-pyrazol-5-yl)methyl)-3,3-dimethyl-2-oxoindoline-6-carboxamide], the EC50 was 1000 to 10000 nM on hSTING (H232); 1000 to 10000 nM in the experiment on IRF pathway; 1000 to 10000 nM with NF-κB pathway; 1000 to 10000 nM at hSTING (HAQ); at most 1000 nM on WT/R232 STING protein.
Take `CC1(C)C(=O)N(Cc2c(F)cccc2Br)c2cc(C(=O)NCc3c(F)cc(F)cc3F)ccc21` [Example 108, 1-(2-bromo-6-fluorobenzyl)-3,3-dimethyl-2-oxo-N-(2,4,6-trifluorobenzyl)indoline-6-carboxamide]: the EC50 on hSTING (H232) is above 10000 nM; in the experiment on IRF pathway, above 10000 nM; in the experiment with NF-κB pathway, above 10000 nM; on hSTING (HAQ) it was above 10000 nM; on WT/R232 STING protein, at most 1000 nM.
On to `CC1(C)C(=O)N(Cc2c(F)cccc2F)c2cc(C(=O)NCc3c(F)cc(F)cc3F)ccc21` [Example 109, 1-(2,6-difluorobenzyl)-3,3-dimethyl-2-oxo-N-(2,4,6-trifluorobenzyl)indoline-6-carboxamide], for which the EC50 is at most 1000 nM at hSTING (H232); 1000 to 10000 nM with IRF pathway; 1000 to 10000 nM in the experiment on NF-κB pathway; at most 1000 nM at hSTING (HAQ); at most 1000 nM at WT/R232 STING protein.
On to `CC1(C)C(=O)N(Cc2c(F)cccc2OC(F)F)c2cc(C(=O)NCc3c(F)cc(F)cc3F)ccc21` [Example 111, 1-(2-(difluoromethoxy)-6-fluorobenzyl)-3,3-dimethyl-2-oxo-N-(2,4,6-trifluorobenzyl)indoline-6-carboxamide], for which the EC50 was at most 1000 nM on hSTING (H232); 1000 to 10000 nM in the experiment with IRF pathway; 1000 to 10000 nM in the experiment on NF-κB pathway; at most 1000 nM on hSTING (HAQ); at most 1000 nM at WT/R232 STING protein.
`Cc1nn(C)c(CN2C(=O)C(C)(C)c3ccc(C(=O)NCc4cc5ccccc5o4)cc32)c1Br` [Example 112, N-(benzofuran-2-ylmethyl)-1-((4-bromo-1,3-dimethyl-1H-pyrazol-5-yl)methyl)-3,3-dimethyl-2-oxoindoline-6-carboxamide]: the EC50 on hSTING (H232) was at most 1000 nM; with IRF pathway, 1000 to 10000 nM; in the experiment with NF-κB pathway, 1000 to 10000 nM; at hSTING (HAQ), at most 1000 nM; at WT/R232 STING protein, at most 1000 nM.
On to `Cc1nn(C)c(CN2C(=O)C(C)(C)c3ccc(C(=O)NCc4cc5cc(F)c(F)cc5o4)cc32)c1F` [Example 114, N-((5,6-difluorobenzofuran-2-yl)methyl)-1-((4-fluoro-1,3-dimethyl-1H-pyrazol-5-yl)methyl)-3,3-dimethyl-2-oxoindoline-6-carboxamide], for which the EC50 on hSTING (H232) is at most 1000 nM; in the experiment on IRF pathway, 1000 to 10000 nM; in the experiment on NF-κB pathway, 1000 to 10000 nM; on hSTING (HAQ), at most 1000 nM; at WT/R232 STING protein, at most 1000 nM.
On to `Cc1nn(C)c(CN2C(=O)C(C)(C)c3ccc(C(=O)NCc4cc5cc(F)ccc5o4)cc32)c1F` [Example 115, 1-((4-fluoro-1,3-dimethyl-1H-pyrazol-5-yl)methyl)-N-((5-fluorobenzofuran-2-yl)methyl)-3,3-dimethyl-2-oxoindoline-6-carboxamide], for which the EC50 is at most 1000 nM on hSTING (H232); 1000 to 10000 nM in the experiment on IRF pathway; 1000 to 10000 nM with NF-κB pathway; at most 1000 nM on hSTING (HAQ); at most 1000 nM on WT/R232 STING protein.
